PMC4009756, “In Vitro High Throughput Screening, What Next? Lessons from the Screening for Aurora Kinase Inhibitors” (Biology, 2014)

Legend:
Format in all cases: biochemical
[1] = molecular target: T1, Tak1 "Transforming growth factor beta activated kinase" (Homo sapiens, UniProt O43318); experiment: in vitro kinase profiling (MRC Dundee), […], duplicate
T1 construct: gene MAP3K7; recombinant kinase (NM_003188)
T1 sequence (O43318 1-606): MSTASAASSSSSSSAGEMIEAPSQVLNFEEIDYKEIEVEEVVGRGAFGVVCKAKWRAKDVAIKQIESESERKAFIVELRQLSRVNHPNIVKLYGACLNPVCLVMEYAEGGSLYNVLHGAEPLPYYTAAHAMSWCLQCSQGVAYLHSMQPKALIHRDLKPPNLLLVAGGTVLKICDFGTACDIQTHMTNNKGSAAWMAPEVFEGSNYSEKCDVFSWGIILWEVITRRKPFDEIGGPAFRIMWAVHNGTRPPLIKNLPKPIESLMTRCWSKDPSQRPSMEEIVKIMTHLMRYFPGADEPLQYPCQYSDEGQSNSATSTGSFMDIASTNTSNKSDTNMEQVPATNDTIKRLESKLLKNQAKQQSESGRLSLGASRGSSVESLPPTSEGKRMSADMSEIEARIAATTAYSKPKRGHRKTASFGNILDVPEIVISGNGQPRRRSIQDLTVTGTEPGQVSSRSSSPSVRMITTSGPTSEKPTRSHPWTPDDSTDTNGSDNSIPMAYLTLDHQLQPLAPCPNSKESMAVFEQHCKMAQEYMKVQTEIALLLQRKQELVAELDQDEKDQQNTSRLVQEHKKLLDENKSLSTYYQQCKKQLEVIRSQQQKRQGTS

[2] = molecular target: T2, NUAK1-ARK5 "SnF1-like Kinase" (Homo sapiens, UniProt O60285); experiment: as above
T2 construct: recombinant kinase (NM_014840)
T2 sequence (O60285 1-661): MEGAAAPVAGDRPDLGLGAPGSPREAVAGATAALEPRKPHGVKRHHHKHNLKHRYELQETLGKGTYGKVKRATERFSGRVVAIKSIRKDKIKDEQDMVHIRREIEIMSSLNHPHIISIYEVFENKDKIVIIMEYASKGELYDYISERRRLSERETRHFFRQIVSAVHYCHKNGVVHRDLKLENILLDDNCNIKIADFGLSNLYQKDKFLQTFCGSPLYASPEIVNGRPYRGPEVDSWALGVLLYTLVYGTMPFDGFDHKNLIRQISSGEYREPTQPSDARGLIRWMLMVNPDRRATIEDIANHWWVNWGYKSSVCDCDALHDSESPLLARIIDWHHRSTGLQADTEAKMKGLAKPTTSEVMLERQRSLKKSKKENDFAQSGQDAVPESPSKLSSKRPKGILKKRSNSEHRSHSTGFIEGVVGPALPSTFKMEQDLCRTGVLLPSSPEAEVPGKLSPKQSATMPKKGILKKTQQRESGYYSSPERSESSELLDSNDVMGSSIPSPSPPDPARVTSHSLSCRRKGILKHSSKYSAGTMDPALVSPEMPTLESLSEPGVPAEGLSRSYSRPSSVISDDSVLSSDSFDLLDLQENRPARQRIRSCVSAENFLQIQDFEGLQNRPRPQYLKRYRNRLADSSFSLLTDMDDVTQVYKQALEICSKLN

[3] = molecular target: T3, GCK "Germinal central kinase" (Homo sapiens, UniProt Q12851); experiment: as above
T3 construct: gene MAP4K2; recombinant kinase (BC047865)
T3 sequence (Q12851 1-820): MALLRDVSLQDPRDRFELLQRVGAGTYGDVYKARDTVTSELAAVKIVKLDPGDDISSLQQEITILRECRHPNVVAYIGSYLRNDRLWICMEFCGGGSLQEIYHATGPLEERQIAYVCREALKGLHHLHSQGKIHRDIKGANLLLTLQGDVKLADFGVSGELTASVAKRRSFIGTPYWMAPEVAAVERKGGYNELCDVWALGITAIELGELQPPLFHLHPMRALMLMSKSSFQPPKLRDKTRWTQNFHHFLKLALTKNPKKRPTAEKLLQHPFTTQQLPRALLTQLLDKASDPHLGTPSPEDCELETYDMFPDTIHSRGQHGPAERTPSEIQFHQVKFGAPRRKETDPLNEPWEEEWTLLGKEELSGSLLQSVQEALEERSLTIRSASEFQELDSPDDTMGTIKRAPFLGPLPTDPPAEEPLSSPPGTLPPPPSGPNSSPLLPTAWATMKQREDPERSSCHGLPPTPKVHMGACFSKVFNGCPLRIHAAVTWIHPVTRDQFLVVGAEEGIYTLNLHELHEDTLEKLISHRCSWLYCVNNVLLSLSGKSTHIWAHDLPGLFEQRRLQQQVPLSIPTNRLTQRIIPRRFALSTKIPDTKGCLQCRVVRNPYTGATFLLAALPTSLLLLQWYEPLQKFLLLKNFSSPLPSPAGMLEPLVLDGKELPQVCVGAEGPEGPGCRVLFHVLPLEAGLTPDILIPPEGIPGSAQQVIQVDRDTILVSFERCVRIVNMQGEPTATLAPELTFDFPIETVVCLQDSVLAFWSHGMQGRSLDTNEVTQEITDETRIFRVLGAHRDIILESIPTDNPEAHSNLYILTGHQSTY

[4] = molecular target: T4, TrkA "Tropomyosin Related kinase A" (Homo sapiens, UniProt P04629); experiment: as above
T4 construct: gene NTRK1; recombinant kinase (NM_001007792.1)

aurora kinase A = molecular target: T5, aurora kinase A (Homo sapiens, UniProt O14965); experiment: in vitro histone H3 phosphorylation by recombinant kinase domain; details: read-out: % inhibition at 1.5 μM
T5 construct: gene AURKA; recombinant kinase domain
T5 sequence (O14965 133-383 limits assumed): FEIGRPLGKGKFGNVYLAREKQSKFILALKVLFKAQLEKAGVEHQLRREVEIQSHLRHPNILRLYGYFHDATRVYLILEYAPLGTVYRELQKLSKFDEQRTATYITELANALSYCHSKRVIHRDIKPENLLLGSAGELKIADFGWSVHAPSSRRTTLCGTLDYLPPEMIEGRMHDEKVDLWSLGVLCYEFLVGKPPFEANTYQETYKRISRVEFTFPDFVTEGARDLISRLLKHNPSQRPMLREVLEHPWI

T4 sequence (P04629 33-796): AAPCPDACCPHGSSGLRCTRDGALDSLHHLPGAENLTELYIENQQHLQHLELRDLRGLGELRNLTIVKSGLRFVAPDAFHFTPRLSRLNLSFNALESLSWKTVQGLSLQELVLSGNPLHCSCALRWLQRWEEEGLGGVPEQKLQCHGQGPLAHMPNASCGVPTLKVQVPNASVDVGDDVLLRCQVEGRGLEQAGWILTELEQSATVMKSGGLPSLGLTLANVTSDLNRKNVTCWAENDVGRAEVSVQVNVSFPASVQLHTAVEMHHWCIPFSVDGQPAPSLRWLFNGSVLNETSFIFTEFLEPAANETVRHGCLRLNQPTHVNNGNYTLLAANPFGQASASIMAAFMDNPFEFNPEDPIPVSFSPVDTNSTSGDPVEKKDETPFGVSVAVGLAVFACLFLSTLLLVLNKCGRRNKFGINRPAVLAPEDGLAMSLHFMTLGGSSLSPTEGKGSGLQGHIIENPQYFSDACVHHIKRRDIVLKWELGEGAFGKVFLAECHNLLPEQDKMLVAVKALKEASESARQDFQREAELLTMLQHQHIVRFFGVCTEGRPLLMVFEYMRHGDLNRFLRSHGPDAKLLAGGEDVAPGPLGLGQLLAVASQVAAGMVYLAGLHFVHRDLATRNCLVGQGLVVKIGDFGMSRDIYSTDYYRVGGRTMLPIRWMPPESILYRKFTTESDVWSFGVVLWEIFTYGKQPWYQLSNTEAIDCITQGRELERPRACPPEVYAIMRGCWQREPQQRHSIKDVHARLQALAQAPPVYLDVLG

SMILES	remaining activity at 1 µM [1] [%]	remaining activity at 1 µM [2] [%]	remaining activity at 1 µM [3] [%]	remaining activity at 1 µM [4] [%]	inhibition at 1.5 µM (aurora kinase A) [%]
Cc1cncc2c1[nH]c1ccc3cc(OCCN(C)C)ccc3c12 [C2]	55 ± 3	53 ± 2	32 ± 1	36 ± 2	–
O=c1cc(-c2ccc(O)cc2)oc2cc(O)cc(O)c12 [apigenin]	–	–	–	–	33
O=c1cc(-c2ccc(O)c(O)c2)oc2cc(O)cc(O)c12 [luteonin]	–	–	–	–	50
